{"source": "patent US20200172966A1", "about": "(YAMAGUCHI UNIVERSITY, priority 2015, published 2020)", "assay": "incidence of side effect (hematologic toxicity) by single nucleotide polymorphism genotype in Japanese patients with colon cancer who had received irinotecan", "type": "in vivo, human", "method": "By using TaqMan SNP Assays Human (manufactured by Applied Biosystems, Inc.) and LightCycler (R) 480 Probe Master (manufactured by Roche Diagnostics, Inc.), Universal ProbeLibrary (manufactured by Roche Diagnostics, Inc.), and LightCycler 480 System II (manufactured by Roche Diagnostics, Inc.), 10 ng of genomic DNA was subjected to genotyping. After incubation at 95° C. for 10 min, the sample was subjected to PCR amplification with 55 cycles for rs1980576, rs2272761, and rs9425343, 45 cycles for rs12577167, rs7265854, and rs1135640, or 40 cycles for rs1547 (1 cycle consisted of 92° C. for 15 sec and 60° C. for 60 sec). The fluorescence emitted from the PCR products were measured.\nThe “Odds ratio” in Table 3 refers to an odds ratio indicating the occurrence of a side effect as calculated using a Fisher's exact test on a single nucleotide polymorphism being homozygous for a wild-type or homozygous for a variant type.\nThe term (P value/C.-A.) in Table 4 is the same as in Table 2. […] The term “Odds ratio” in Table 5 is the same as in Table 3.", "key": {"[1]": {"settings": "N = 72, homozygous UGT1A1*28 excluded (Table 5), ACOX1 rs1135640 G/G"}, "[2]": {"settings": "N = 72, homozygous UGT1A1*28 excluded, ACOX1 rs1135640 C/C, C/G"}, "[3]": {"settings": "N = 72, homozygous UGT1A1*28 excluded, APCDD1L rs1980576 A/A"}, "[4]": {"settings": "N = 72, homozygous UGT1A1*28 excluded, APCDD1L rs1980576 A/A, A/G"}, "[5]": {"settings": "N = 72, homozygous UGT1A1*28 excluded, APCDD1L rs1980576 A/G, G/G"}, "[6]": {"settings": "N = 72, homozygous UGT1A1*28 excluded, APCDD1L rs1980576 G/G"}, "[7]": {"settings": "N = 72, homozygous UGT1A1*28 excluded, APCDD1L rs7265854 C/C"}, "[8]": {"settings": "N = 72, homozygous UGT1A1*28 excluded, APCDD1L rs7265854 T/T, T/C"}, "[9]": {"settings": "N = 72, homozygous UGT1A1*28 excluded, EDEM3 rs9425343 T/G, G/G"}, "[10]": {"settings": "N = 72, homozygous UGT1A1*28 excluded, EDEM3 rs9425343 T/T"}, "[11]": {"settings": "N = 72, homozygous UGT1A1*28 excluded, R3HCC1 rs2272761 G/A, A/A"}, "[12]": {"settings": "N = 72, homozygous UGT1A1*28 excluded, R3HCC1 rs2272761 G/G"}, "[13]": {"settings": "N = 72, homozygous UGT1A1*28 with reduced amount of irinotecan excluded (Table 4), ACOX1 rs1135640 C/C"}, "[14]": {"settings": "N = 72, homozygous UGT1A1*28 with reduced amount of irinotecan excluded (Table 4), ACOX1 rs1135640 C/G"}, "[15]": {"settings": "N = 72, homozygous UGT1A1*28 with reduced amount of irinotecan excluded (Table 4), ACOX1 rs1135640 G/G"}, "[16]": {"settings": "N = 73, homozygous UGT1A1*28 with reduced amount of irinotecan excluded, APCDD1L rs1980576 A/A"}, "[17]": {"settings": "N = 73, homozygous UGT1A1*28 with reduced amount of irinotecan excluded, APCDD1L rs1980576 A/G"}, "[18]": {"settings": "N = 73, homozygous UGT1A1*28 with reduced amount of irinotecan excluded, APCDD1L rs1980576 G/G"}, "[19]": {"settings": "N = 73, homozygous UGT1A1*28 with reduced amount of irinotecan excluded, APCDD1L rs7265854 A/A"}, "[20]": {"settings": "N = 73, homozygous UGT1A1*28 with reduced amount of irinotecan excluded, APCDD1L rs7265854 A/G"}, "[21]": {"settings": "N = 73, homozygous UGT1A1*28 with reduced amount of irinotecan excluded, APCDD1L rs7265854 G/G"}, "[22]": {"settings": "N = 73, homozygous UGT1A1*28 with reduced amount of irinotecan excluded, CSMD2 rs474474 A/A"}, "[23]": {"settings": "N = 73, homozygous UGT1A1*28 with reduced amount of irinotecan excluded, CSMD2 rs474474 A/G"}, "[24]": {"settings": "N = 73, homozygous UGT1A1*28 with reduced amount of irinotecan excluded, CSMD2 rs474474 G/G"}, "[25]": {"settings": "N = 73, homozygous UGT1A1*28 with reduced amount of irinotecan excluded, EDEM3 rs9425343 G/G"}, "[26]": {"settings": "N = 73, homozygous UGT1A1*28 with reduced amount of irinotecan excluded, EDEM3 rs9425343 T/G"}, "[27]": {"settings": "N = 73, homozygous UGT1A1*28 with reduced amount of irinotecan excluded, EDEM3 rs9425343 T/T"}, "[28]": {"settings": "N = 73, homozygous UGT1A1*28 with reduced amount of irinotecan excluded, GATA2 rs2335052 A/A"}, "[29]": {"settings": "N = 73, homozygous UGT1A1*28 with reduced amount of irinotecan excluded, GATA2 rs2335052 G/A"}, "[30]": {"settings": "N = 73, homozygous UGT1A1*28 with reduced amount of irinotecan excluded, GATA2 rs2335052 G/G"}, "[31]": {"settings": "N = 73, homozygous UGT1A1*28 with reduced amount of irinotecan excluded, MKKS rs1547 C/C"}, "[32]": {"settings": "N = 73, homozygous UGT1A1*28 with reduced amount of irinotecan excluded, MKKS rs1547 C/T"}, "[33]": {"settings": "N = 73, homozygous UGT1A1*28 with reduced amount of irinotecan excluded, MKKS rs1547 T/T"}, "[34]": {"settings": "N = 73, homozygous UGT1A1*28 with reduced amount of irinotecan excluded, OR51I2 rs12577167 A/A"}, "[35]": {"settings": "N = 73, homozygous UGT1A1*28 with reduced amount of irinotecan excluded, OR51I2 rs12577167 A/G"}, "[36]": {"settings": "N = 73, homozygous UGT1A1*28 with reduced amount of irinotecan excluded, OR51I2 rs12577167 G/G"}, "[37]": {"settings": "N = 73, homozygous UGT1A1*28 with reduced amount of irinotecan excluded, R3HCC1 rs2272761 A/A"}, "[38]": {"settings": "N = 73, homozygous UGT1A1*28 with reduced amount of irinotecan excluded, R3HCC1 rs2272761 G/A"}, "[39]": {"settings": "N = 73, homozygous UGT1A1*28 with reduced amount of irinotecan excluded, R3HCC1 rs2272761 G/G"}}}
{"smiles": "CCc1c2c(nc3ccc(OC(=O)N4CCC(N5CCCCC5)CC4)cc13)-c1cc3c(c(=O)n1C2)COC(=O)[C@]3(O)CC", "note": "[irinotecan, 1,4′-Bipiperidine-1′-carboxylic acid (S)-4,11-diethyl-3,4,12,14-tetrahydro-4-hydroxy-3,14-dioxo-1H-pyrano[3′,4′:6,7]indolizino[1,2-b]quinolin-9-yl ester]", "values": [{"measurement": "Toxicity No", "setting": "[1]", "result": 21}, {"measurement": "Toxicity Yes", "setting": "[1]", "result": 8}, {"measurement": "Toxicity No", "setting": "[2]", "result": 17}, {"measurement": "Toxicity Yes", "setting": "[2]", "result": 26}, {"measurement": "Toxicity No", "setting": "[3]", "result": 16}, {"measurement": "Toxicity Yes", "setting": "[3]", "result": 6}, {"measurement": "Toxicity No", "setting": "[4]", "result": 35}, {"measurement": "Toxicity Yes", "setting": "[4]", "result": 26}, {"measurement": "Toxicity No", "setting": "[5]", "result": 22}, {"measurement": "Toxicity Yes", "setting": "[5]", "result": 28}, {"measurement": "Toxicity No", "setting": "[6]", "result": 3}, {"measurement": "Toxicity Yes", "setting": "[6]", "result": 8}, {"measurement": "Toxicity No", "setting": "[7]", "result": 8}, {"measurement": "Toxicity Yes", "setting": "[7]", "result": 1}, {"measurement": "Toxicity No", "setting": "[8]", "result": 30}, {"measurement": "Toxicity Yes", "setting": "[8]", "result": 33}, {"measurement": "Toxicity No", "setting": "[9]", "result": 31}, {"measurement": "Toxicity Yes", "setting": "[9]", "result": 21}, {"measurement": "Toxicity No", "setting": "[10]", "result": 7}, {"measurement": "Toxicity Yes", "setting": "[10]", "result": 13}, {"measurement": "Toxicity No", "setting": "[11]", "result": 32}, {"measurement": "Toxicity Yes", "setting": "[11]", "result": 34}, {"measurement": "Toxicity No", "setting": "[12]", "result": 6}, {"measurement": "Toxicity Yes", "setting": "[12]", "result": 0}, {"measurement": "Toxicity No", "setting": "[13]", "result": 3}, {"measurement": "Toxicity Yes", "setting": "[13]", "result": 8}, {"measurement": "Toxicity No", "setting": "[14]", "result": 14}, {"measurement": "Toxicity Yes", "setting": "[14]", "result": 18}, {"measurement": "Toxicity No", "setting": "[15]", "result": 21}, {"measurement": "Toxicity Yes", "setting": "[15]", "result": 8}, {"measurement": "Toxicity No", "setting": "[16]", "result": 16}, {"measurement": "Toxicity Yes", "setting": "[16]", "result": 6}, {"measurement": "Toxicity No", "setting": "[17]", "result": 20}, {"measurement": "Toxicity Yes", "setting": "[17]", "result": 20}, {"measurement": "Toxicity No", "setting": "[18]", "result": 3}, {"measurement": "Toxicity Yes", "setting": "[18]", "result": 8}, {"measurement": "Toxicity No", "setting": "[19]", "result": 13}, {"measurement": "Toxicity Yes", "setting": "[19]", "result": 18}, {"measurement": "Toxicity No", "setting": "[20]", "result": 18}, {"measurement": "Toxicity Yes", "setting": "[20]", "result": 15}, {"measurement": "Toxicity No", "setting": "[21]", "result": 8}, {"measurement": "Toxicity Yes", "setting": "[21]", "result": 1}, {"measurement": "Toxicity No", "setting": "[22]", "result": 16}, {"measurement": "Toxicity Yes", "setting": "[22]", "result": 22}, {"measurement": "Toxicity No", "setting": "[23]", "result": 18}, {"measurement": "Toxicity Yes", "setting": "[23]", "result": 8}, {"measurement": "Toxicity No", "setting": "[24]", "result": 5}, {"measurement": "Toxicity Yes", "setting": "[24]", "result": 4}, {"measurement": "Toxicity No", "setting": "[25]", "result": 10}, {"measurement": "Toxicity Yes", "setting": "[25]", "result": 5}, {"measurement": "Toxicity No", "setting": "[26]", "result": 21}, {"measurement": "Toxicity Yes", "setting": "[26]", "result": 16}, {"measurement": "Toxicity No", "setting": "[27]", "result": 8}, {"measurement": "Toxicity Yes", "setting": "[27]", "result": 13}, {"measurement": "Toxicity No", "setting": "[28]", "result": 5}, {"measurement": "Toxicity Yes", "setting": "[28]", "result": 5}, {"measurement": "Toxicity No", "setting": "[29]", "result": 20}, {"measurement": "Toxicity Yes", "setting": "[29]", "result": 12}, {"measurement": "Toxicity No", "setting": "[30]", "result": 14}, {"measurement": "Toxicity Yes", "setting": "[30]", "result": 17}, {"measurement": "Toxicity No", "setting": "[31]", "result": 20}, {"measurement": "Toxicity Yes", "setting": "[31]", "result": 10}, {"measurement": "Toxicity No", "setting": "[32]", "result": 16}, {"measurement": "Toxicity Yes", "setting": "[32]", "result": 19}, {"measurement": "Toxicity No", "setting": "[33]", "result": 3}, {"measurement": "Toxicity Yes", "setting": "[33]", "result": 5}, {"measurement": "Toxicity No", "setting": "[34]", "result": 19}, {"measurement": "Toxicity Yes", "setting": "[34]", "result": 23}, {"measurement": "Toxicity No", "setting": "[35]", "result": 14}, {"measurement": "Toxicity Yes", "setting": "[35]", "result": 10}, {"measurement": "Toxicity No", "setting": "[36]", "result": 6}, {"measurement": "Toxicity Yes", "setting": "[36]", "result": 1}, {"measurement": "Toxicity No", "setting": "[37]", "result": 22}, {"measurement": "Toxicity Yes", "setting": "[37]", "result": 24}, {"measurement": "Toxicity No", "setting": "[38]", "result": 11}, {"measurement": "Toxicity Yes", "setting": "[38]", "result": 10}, {"measurement": "Toxicity No", "setting": "[39]", "result": 6}, {"measurement": "Toxicity Yes", "setting": "[39]", "result": 0}, {"measurement": "irinotecan side effect observed", "setting": "of 68 cases considered to have a low risk of a side effect in view of the UGT1A gene polymorphisms", "result": 29, "unit": "cases"}]}
